Data reported in ChEMBL document CHEMBL1201862, “PubChem BioAssay data set” (2004).
The source made the active and inactive calls.

Legend:
[1] = microbe, parasite or virus in culture; format: functional; conditions: Mycobacterium tuberculosis
[2] = target: T1, RNA-binding protein pos-1 (Caenorhabditis elegans, UniProt G5EF15); assay: disruptors of C. elegans POS-1 RNA interaction – biochemical, fluorescence polarization, dose response (AID 1964);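 further: purified POS-1 fused to maltose binding protein made in E. coli; potency of compounds blocking POS-1 binding to fluorescent RNA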
T1 sequence (G5EF15 whole entry): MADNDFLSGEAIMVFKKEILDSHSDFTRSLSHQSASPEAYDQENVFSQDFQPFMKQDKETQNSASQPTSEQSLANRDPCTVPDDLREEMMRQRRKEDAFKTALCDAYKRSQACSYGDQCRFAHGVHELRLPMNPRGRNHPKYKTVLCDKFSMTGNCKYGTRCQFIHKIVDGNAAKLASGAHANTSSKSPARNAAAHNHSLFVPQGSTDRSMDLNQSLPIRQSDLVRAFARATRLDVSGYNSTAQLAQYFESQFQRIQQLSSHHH

[3] = target: T2, Zinc finger protein mex-5 (Caenorhabditis elegans, UniProt Q9XUB2); assay: potency of MEX-5 RNA-binding blockers – biochemical, C. elegans, fluorescence polarization, dose response (AID 1960)
T2 sequence (Q9XUB2 whole entry): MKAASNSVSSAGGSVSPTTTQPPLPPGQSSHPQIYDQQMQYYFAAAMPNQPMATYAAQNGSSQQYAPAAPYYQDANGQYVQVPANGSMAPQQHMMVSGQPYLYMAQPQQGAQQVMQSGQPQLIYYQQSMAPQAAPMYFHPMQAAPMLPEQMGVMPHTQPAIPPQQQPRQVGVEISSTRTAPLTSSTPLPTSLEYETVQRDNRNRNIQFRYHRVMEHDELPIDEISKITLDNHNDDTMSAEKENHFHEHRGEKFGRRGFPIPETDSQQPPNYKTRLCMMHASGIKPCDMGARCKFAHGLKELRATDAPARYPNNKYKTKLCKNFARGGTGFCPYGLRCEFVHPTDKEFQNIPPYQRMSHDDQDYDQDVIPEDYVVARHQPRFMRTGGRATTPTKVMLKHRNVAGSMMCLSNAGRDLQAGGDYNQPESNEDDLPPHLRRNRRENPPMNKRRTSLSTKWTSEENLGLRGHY

[4] = viability of PTEN-deleted HCT116 cells – cell-based, HCT116 PTEN knockout, dose response (AID 1047); format: functional;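 further: HCT116 colon tumor cells with PTEN knocked out; cells exposed to compound for 60 hours before readout; potency for loss of cell viability measured by luminescence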
[5] = viability of HCT116 lacking mutant beta-catenin – cell-based, human colon tumor, dose response (AID 1045); format: functional;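 further: HCT116 colon tumor cells with beta catenin knocked out; cells exposed to compound for 60 hours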
[6] = Luminescence Cell-Based Dose Response HTS to Identify Inhibitors of 5'UTR Stem-Loop Driven Prion Protein mRNA Translation in H4 Neuroglioblastoma Cells. [Related pubchem assays: 1827 (Project Summary), 1813 (Primary HTS)]; format: functional
INS1 = assay: INS-1E survival protection against cytokine death – cell-based, luminescence, retest, dose response (AID 449756); format: functional; conditions: Rattus norvegicus;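 further: cell death triggered by IL-1 beta plus TNF-alpha plus IFN-gamma mixture; protective hits raise ATP signal compared with cytokine alone wells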
[7] = viability of uninfected HEp-2 cells – cell-based, HTS, cytotoxicity control for RSV inhibitor project, dose response (AID 2410); format: functional; conditions: human respiratory syncytial virus
[8] = NIH3T3 cell viability loss – ATP luminescence, mouse fibroblasts, counter-screen, dose response (AID 2010); format: functional, cell-based;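 further: cells exposed to compound for about 90 hours before reading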
[9] = Trypanosoma cruzi growth suppression in host cells – NIH3T3 host cells, beta-gal luminescence, confirmation (AID 2044); format: functional, cell-based;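 further: intracellular parasites grown in NIH/3T3 mouse fibroblasts as host cells; luminescent beta-galactosidase reporter signal from transgenic T. cruzi replicating inside host cells; inhibitors lower the luminescence signal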
[10] = loss of viability in HepG2 cells – cell-based, CellTiter-Glo, cherry-picked, cytotoxicity control for Shn3 inhibitor project, dose response (AID 624134); format: functional
[11] = non-specific 3'UTR reporter inhibition in Clone20-Shn3RL – cell-based, Renilla luciferase, cherry-picked, counter-screen for Shn3 inhibitor project, dose response (AID 624133); format: functional
[12] = reduction of Shn3 3'UTR-driven luciferase in osteoblasts – cell-based, Clone20 osteoblasts, firefly luciferase, cherry-picked, dose response (AID 624132); format: functional;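 further: firefly luciferase luminescence from reporter carrying the Shn3 3'UTR in osteoblasts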
[13] = target: T3, Corticotropin-releasing factor receptor 2/Corticotropin-releasing factor-binding protein (Homo sapiens, UniProt P24387+Q13324); assay: Dose Response confirmation of uHTS hits for small molecule antagonists of the CRF-binding protein and CRF-R2 receptor complex.; format: functional; conditions: read-out: IC50_Mean
T3 sequence (Q13324 whole entry): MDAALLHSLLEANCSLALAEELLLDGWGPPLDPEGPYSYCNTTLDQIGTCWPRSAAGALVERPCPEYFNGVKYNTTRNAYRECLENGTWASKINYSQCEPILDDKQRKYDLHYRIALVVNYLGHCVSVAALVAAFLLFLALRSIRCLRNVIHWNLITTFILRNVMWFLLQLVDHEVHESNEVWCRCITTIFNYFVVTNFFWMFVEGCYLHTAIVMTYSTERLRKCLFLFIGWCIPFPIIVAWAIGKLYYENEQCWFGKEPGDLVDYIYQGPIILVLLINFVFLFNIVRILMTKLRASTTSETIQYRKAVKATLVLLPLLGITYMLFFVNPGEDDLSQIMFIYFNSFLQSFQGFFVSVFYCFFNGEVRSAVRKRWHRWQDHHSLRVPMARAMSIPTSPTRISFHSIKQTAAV
T3 sequence (P24387 whole entry): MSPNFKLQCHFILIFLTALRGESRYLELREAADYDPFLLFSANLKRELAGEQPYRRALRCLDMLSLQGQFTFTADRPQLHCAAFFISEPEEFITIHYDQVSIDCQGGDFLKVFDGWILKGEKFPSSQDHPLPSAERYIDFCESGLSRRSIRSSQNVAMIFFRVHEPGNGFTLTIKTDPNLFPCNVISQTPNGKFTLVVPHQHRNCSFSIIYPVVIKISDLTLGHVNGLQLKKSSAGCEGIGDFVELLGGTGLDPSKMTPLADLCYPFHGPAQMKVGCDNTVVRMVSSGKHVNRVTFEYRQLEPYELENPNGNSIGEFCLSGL

Fatty acid synthase [14] = target: T4, Fatty acid synthase (Homo sapiens, UniProt P49327); assay: inhibition of human FAS-TE enzyme activity – biochemical, endpoint fluorescence intensity, uHTS hits, dose response (AID 624327); format: functional;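 further: fluorescence from hydrolysis of an O-methyl fluorescein acyl ester substrate by the enzyme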
T4 sequence (P49327 whole entry): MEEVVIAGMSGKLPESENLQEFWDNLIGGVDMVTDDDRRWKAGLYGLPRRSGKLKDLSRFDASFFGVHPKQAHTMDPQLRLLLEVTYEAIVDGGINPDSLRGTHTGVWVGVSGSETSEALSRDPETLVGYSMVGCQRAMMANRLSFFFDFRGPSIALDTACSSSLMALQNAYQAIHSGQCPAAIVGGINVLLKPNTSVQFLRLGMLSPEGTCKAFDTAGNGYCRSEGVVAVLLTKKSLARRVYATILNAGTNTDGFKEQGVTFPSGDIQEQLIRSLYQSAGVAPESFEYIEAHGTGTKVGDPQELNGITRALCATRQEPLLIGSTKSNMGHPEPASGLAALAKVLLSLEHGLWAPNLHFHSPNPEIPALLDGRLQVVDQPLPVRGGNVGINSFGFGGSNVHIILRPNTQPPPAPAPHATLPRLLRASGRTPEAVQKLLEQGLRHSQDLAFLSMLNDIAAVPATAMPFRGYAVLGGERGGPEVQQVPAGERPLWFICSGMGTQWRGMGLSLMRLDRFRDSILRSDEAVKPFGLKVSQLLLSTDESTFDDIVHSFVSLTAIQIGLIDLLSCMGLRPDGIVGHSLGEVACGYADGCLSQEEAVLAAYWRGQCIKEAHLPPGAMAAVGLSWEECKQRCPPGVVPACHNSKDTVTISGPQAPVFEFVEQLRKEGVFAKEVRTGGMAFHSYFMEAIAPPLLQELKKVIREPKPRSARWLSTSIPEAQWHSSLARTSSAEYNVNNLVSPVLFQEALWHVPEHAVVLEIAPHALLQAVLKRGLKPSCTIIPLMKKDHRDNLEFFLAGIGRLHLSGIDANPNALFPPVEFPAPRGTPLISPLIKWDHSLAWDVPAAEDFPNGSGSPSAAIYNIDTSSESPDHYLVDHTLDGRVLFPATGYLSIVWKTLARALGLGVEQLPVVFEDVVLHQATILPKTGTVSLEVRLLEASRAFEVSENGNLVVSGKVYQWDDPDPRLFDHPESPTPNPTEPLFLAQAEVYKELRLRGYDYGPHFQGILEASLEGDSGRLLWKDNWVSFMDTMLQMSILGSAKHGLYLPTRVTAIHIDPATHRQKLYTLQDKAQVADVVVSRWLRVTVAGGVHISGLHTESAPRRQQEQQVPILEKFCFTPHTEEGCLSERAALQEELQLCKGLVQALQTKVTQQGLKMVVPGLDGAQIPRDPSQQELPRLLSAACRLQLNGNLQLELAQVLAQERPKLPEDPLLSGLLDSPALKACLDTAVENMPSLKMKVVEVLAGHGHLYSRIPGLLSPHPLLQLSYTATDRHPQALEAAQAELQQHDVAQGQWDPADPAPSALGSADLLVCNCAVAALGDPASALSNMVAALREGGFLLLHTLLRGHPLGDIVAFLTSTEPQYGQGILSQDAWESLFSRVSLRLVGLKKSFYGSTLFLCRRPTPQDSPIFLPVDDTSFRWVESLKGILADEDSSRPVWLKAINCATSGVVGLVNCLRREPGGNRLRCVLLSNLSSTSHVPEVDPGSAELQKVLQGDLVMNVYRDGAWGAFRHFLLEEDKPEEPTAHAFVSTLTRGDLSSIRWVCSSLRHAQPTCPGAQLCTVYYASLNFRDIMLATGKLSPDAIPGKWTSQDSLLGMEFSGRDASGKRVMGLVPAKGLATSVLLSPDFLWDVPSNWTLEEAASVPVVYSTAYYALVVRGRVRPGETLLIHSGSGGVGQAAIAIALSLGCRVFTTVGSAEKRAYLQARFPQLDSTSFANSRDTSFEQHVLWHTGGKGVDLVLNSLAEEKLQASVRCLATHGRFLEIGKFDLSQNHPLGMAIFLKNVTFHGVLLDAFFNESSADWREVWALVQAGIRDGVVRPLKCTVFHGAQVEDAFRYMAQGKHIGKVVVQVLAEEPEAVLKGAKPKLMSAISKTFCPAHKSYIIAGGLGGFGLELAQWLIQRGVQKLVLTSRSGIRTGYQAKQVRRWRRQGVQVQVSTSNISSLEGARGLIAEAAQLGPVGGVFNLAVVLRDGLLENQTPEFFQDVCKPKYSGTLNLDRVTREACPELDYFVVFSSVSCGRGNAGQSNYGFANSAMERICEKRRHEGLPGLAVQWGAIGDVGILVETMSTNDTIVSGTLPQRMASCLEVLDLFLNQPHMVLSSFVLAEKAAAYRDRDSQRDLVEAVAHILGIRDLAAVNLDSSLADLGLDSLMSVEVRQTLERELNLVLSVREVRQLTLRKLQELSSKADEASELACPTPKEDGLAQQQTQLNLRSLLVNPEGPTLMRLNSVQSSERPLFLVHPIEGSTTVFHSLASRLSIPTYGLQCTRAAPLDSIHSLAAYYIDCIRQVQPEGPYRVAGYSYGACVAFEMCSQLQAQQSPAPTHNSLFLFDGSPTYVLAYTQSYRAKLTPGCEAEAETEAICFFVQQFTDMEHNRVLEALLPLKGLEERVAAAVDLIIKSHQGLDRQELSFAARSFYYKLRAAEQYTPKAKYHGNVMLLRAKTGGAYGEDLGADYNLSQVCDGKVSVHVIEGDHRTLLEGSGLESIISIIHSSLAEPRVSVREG

[15] = target: T3, Corticotropin-releasing factor receptor 2/Corticotropin-releasing factor-binding protein; assay: activators of CRF receptor 2 with binding protein – uHTS hits, confirmation (AID 602473); format: functional; conditions: read-out: EC50_Mean
Fatty acid synthase [16] = target: T4, Fatty acid synthase; assay: inhibition of human FAS-TE enzyme activity – biochemical, kinetic fluorescence intensity, dose response (AID 624326); format: functional;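 further: rate of fluorescence rise from hydrolysis of a fluorogenic O-methyl fluorescein ester substrate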
[17] = target: T5, Heat shock factor protein 1 (Mus musculus, UniProt P38532); assay: decrease of HSF1-responsive luciferase luminescence – cell-based, NIH3T3, dose retest, confirmation (AID 2382); format: functional;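 further: NIH3T3 fibroblasts with HSF1-driven luciferase reporter stressed by proteasome inhibitor MG132; luminescence from HSF1-driven luciferase expression after 8 hours of MG132 stress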
T5 sequence (P38532 whole entry): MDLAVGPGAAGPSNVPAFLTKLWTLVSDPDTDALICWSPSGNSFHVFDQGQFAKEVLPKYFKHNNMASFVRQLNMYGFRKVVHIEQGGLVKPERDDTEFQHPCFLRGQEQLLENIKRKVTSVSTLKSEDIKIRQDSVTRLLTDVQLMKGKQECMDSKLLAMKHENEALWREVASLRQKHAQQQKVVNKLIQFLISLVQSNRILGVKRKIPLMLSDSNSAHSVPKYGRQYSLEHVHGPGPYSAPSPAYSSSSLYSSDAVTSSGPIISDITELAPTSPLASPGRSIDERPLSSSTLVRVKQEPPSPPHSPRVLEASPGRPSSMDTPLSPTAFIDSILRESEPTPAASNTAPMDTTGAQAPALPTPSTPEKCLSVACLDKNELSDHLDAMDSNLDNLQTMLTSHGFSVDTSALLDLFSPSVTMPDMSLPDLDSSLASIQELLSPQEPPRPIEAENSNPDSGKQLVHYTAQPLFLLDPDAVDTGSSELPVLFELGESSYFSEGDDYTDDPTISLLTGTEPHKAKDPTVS

[18] = alpha-synuclein stem-loop luciferase translation blockers – H4 neuroglioma cells, luminescence, confirmation (AID 1988); format: functional, cell-based
[19] = Luminescence Cell-Based Dose Response HTS to Identify Activators of Luciferase Translation or Activity in H4 […] Cells. [Related pubchem assays: 1829 (Project Summary), 1814 (Primary HTS)]; format: functional
Cytochrome P450 2C9 = Cytochrome P450 2C9 (Homo sapiens, UniProt P11712)
Cytochrome P450 2C9, sequence (P11712 whole entry): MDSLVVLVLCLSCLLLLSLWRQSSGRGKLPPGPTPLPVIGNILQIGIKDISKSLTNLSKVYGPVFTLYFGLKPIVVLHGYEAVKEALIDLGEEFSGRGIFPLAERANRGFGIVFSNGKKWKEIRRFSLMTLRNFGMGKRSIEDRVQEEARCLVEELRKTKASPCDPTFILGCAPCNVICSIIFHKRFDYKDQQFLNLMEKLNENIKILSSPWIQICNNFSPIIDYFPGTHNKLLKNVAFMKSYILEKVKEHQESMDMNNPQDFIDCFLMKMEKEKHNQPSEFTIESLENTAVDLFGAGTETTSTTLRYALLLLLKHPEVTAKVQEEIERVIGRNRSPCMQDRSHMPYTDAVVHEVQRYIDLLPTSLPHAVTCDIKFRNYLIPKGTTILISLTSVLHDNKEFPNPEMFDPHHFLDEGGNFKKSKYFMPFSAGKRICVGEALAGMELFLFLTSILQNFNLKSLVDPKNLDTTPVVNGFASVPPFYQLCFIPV

Cytochrome P450 1A2 = target: T6, Cytochrome P450 1A2 (Homo sapiens, UniProt P05177);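 further: PubChem cytochrome P450 panel assay, CYP1A2 panel member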
T6 sequence (P05177 whole entry): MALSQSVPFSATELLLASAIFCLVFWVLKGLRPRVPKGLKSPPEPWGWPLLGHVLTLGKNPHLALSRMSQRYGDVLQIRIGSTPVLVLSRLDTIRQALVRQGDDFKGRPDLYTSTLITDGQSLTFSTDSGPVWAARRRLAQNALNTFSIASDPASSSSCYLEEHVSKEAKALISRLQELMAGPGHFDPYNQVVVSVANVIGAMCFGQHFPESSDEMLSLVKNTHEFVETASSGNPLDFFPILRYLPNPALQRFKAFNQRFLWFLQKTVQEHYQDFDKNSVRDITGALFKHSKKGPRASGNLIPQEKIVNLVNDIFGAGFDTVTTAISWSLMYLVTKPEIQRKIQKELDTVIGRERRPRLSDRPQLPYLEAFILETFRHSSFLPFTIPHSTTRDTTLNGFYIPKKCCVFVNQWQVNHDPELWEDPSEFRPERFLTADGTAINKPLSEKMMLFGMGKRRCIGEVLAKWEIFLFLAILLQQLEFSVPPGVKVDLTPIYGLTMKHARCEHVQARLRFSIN

Cytochrome P450 2D6 = Cytochrome P450 2D6 (Homo sapiens, UniProt P10635);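 further: CYP2D6 member of a cytochrome P450 panel assay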
Cytochrome P450 2D6, sequence (P10635 whole entry): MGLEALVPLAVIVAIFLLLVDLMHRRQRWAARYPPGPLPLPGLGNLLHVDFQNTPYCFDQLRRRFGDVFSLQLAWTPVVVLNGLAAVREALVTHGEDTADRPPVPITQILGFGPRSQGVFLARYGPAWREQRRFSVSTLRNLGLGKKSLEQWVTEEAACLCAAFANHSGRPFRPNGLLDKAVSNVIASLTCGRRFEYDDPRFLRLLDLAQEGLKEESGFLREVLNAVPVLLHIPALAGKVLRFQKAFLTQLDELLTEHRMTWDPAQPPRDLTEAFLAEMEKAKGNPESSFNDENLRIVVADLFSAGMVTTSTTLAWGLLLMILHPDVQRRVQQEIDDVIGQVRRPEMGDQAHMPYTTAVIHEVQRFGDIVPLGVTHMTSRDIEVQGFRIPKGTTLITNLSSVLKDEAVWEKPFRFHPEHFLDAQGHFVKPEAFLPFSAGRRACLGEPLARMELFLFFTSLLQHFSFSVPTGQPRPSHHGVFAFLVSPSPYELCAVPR

Compound: COC1=CC(=O)c2ccccc2C1=O [2-Methoxy-1,4-naphthoquinone]
- CC50 [1]: 12.7 µM (active)

Compound: COc1ccc(C(=O)Nc2nc(-c3ccc([N+](=O)[O-])cc3)c(-c3ccccc3)s2)cc1
- EC50 [2]: > 300 µM (not active)
- EC50 [3]: > 300 µM (not active)

Compound: CCCCNC(=O)C1CC(c2c(Cl)cccc2Cl)=NO1 (stereo not given)
- EC50 [4]: 21.8 µM (active)
- EC50 [5]: 29.6 µM (active)

Compound: CN(C)c1ccc(-c2noc(-c3ccccc3O)n2)cc1
- EC50 [6]: 10.5 µM (inconclusive)

Compound: Nc1c(C(=O)Nc2ccc(S(=O)(=O)N3CCCC3)cc2)sc2nc3cc4c(cc3cc12)CCC4
- AC50 (INS1): 3.29 µM (active)
- CC50 [7]: 27.9 µM (active)
- EC50 [4]: 4.9 µM (active)
- EC50 [5]: 4.81 µM (active)

Compound: CC(C)(C)c1nc(SCC(=O)Nc2nc3c(s2)CCCC3)c2ccccc2n1
- CC50 [1]: 38.7 µM (active)
- EC50 [8]: 12.5 µM (active)
- EC50 [9]: 1.45 µM (active)

Compound: C=CCN=C(S)N1CCN(c2cccc(C(F)(F)F)c2)CC1
- EC50 [2]: > 300 µM (not active)
- EC50 [3]: > 300 µM (not active)

Compound: O=[N+]([O-])c1ccccc1-c1cc(-c2cc(Cl)ccc2O)n[nH]1
- EC50 [4]: 19.5 µM (active)
- EC50 [5]: 27 µM (active)

Compound: CS(=O)(=O)c1ccc(C(=O)OCC(=O)Nc2cccnc2Cl)cc1[N+](=O)[O-]
- AC50 [10]: > 70 µM (inactive)
- AC50 [11]: 12.9 µM (active)
- AC50 [12]: 9.09 µM (active)

Compound: NC(=S)N/N=C/c1ccc(-c2ccc(SC(F)F)cc2)o1
- IC50 [13]: > 47.1 µM (inactive)
- IC50 (Fatty acid synthase [14]): 16.9 µM (active)
- EC50 [15]: > 53 µM (inactive)
- EC50 [8]: 12.7 µM (active)
- IC50 (Fatty acid synthase [16]): 80 µM (inactive)
- EC50 [9]: 0.895 µM (active)

Compound: c1ccc(-c2cn3nc(-c4ccccc4)sc3n2)cc1
- EC50 [17]: < 0.16 µM (active)
- EC50 [6]: 0.583 µM (active)
- EC50 [18]: 0.402 µM (inconclusive)

Compound: CC1=C(C#N)C(=O)N(C)C(=O)/C1=C\N
- EC50 [2]: > 300 µM (not active)
- EC50 [3]: > 300 µM (not active)

Compound: COc1ccc(-c2csc(NC(C)c3nc4cc(Cl)c(N5CCCCC5)cc4n3CCCO)n2)cc1 (stereo not given)
- CC50 [1]: > 40 µM (active)

Compound: O=C(COC(=O)c1[nH]nc2ccccc12)NC(=O)NC12CC3CC(CC(C3)C1)C2
- EC50 [4]: 14.8 µM (active)
- EC50 [5]: 22.1 µM (active)

Compound: O=C(CNc1cccc2ccccc12)N/N=C/C(Br)=C/c1ccccc1
- EC50 [4]: 22.9 µM (active)
- EC50 [5]: 25.8 µM (active)

Compound: CCc1ccc2oc(-c3cc(/N=C/c4cccc(OC)c4O)ccc3O)nc2c1
- CC50 [1]: > 40 µM (active)
- EC50 [8]: > 30 µM (not active)
- EC50 [9]: 2.45 µM (active)

Compound: CC(Cc1cccs1)NC(=O)Nc1ccc(Cl)c(Cl)c1 (stereo not given)
- EC50 [4]: 17.4 µM (active)
- EC50 [5]: 22.6 µM (active)

Compound: CC1CCCC(C)N1/N=C/c1c[nH]c2ccc(Br)cc12 (stereo not given)
- CC50 [1]: 24.4 µM (active)

Compound: O=C(Cc1ccc([N+](=O)[O-])cc1)Nc1cc(C(F)(F)F)cc(C(F)(F)F)c1
- CC50 [1]: 8.99 µM (active)
- EC50 [8]: 7.77 µM (active)
- EC50 [9]: 2.18 µM (active)

Compound: COc1ccc(C2C(C#N)=C(N)OC3=C2C(=O)CC(C)(C)C3)c(OC)c1OC (stereo not given)
- EC50 [2]: > 300 µM (not active)
- EC50 [3]: > 300 µM (not active)

Compound: Cc1ccc(OCC(=O)Nc2ccc(O)c(-c3nc4ccccc4o3)c2)cc1
- EC50 [4]: 26.8 µM (active)
- EC50 [5]: 32.7 µM (active)

Compound: CC(C)c1nc2oc3ccccc3c(=O)c2c(=O)n1-c1ccccc1
- EC50 [19]: 63.4 µM (active)
- AC50 (Cytochrome P450 2C9): 1.78 µM (inconclusive)
- AC50 (Cytochrome P450 1A2): 39.8 µM (inconclusive)

Compound: Cc1cc(C)c(Cn2cnc(-c3ccc([N+](=O)[O-])cc3)c2)c(C)c1
- IC50 (Fatty acid synthase [14]): 12.9 µM (active)
- AC50 (Cytochrome P450 2D6): 28.2 µM (inconclusive)
- IC50 (Fatty acid synthase [16]): 12.6 µM (active)
